# Key:
# [1] = test system: Episkin^TM reconstructed human epidermis; assay: Episkin skin irritation test (MTT viability, Il-1α release; OECD 439); settings: for Il-1α release: 26 mg/cm^2 topical, 15 min exposure, 42 h post-incubation; for skin irritation classification: 50% viability cut-off (OECD prediction model)
# Source text: The Episkin^TM model (aged 13 days, large/1.07 cm^2 surface area) was provided by Episkin (Lyon, France). The Episkin^TM kit consists of 12 reconstructed epidermis units made of type I collagen matrix, representing the dermis, surfaced with a film of type IV collagen, upon which is laid a stratified and differentiated epidermis derived from human keratinocytes [17]. Upon receipt of the tissues, the culture inserts were removed from the agarose-nutrient solution and transferred into 12-well plates containing 2 mL of the maintenance medium (MM) per well. The MM was provided by the manufacturer. Tissues were then incubated for 24 h at 37 °C in a humidified atmosphere of 5% CO2 before use in the permeation, irritation, or phototoxicity experiments.
# Prior to the irritation experiments, the Episkin^TM inserts were washed with sterile PBS to remove traces of the MM and transferred into new 12-well plates containing 2 mL of fresh MM. […] Sodium dodecyl sulphate (SDS; Sigma-Aldrich, Darmstadt, Germany) (5% in water) and PBS were used as positive and negative controls, respectively. Both controls were applied topically (26 mg/cm^2). Samples were tested in two independent experiments using three tissues for each chemical, positive, or negative control.
# Then, the tissues were placed in new 12-well plates containing 2 mL of the MM per well and incubated for an additional 42 h at 37 °C in a humidified atmosphere of 5% CO2 as post-treatment incubation time. At the end of this period, the culture media of each tissue were collected and stored at −20 °C for Il-1α measurement.
# The cell viability was assessed by a subsequent incubation of the tissues for 3 h with freshly prepared 3-(4,5-dimethylthiazol-2-yl)-2,5-diphenyltetrazolium bromide (MTT; Sigma-Aldrich, Darmstadt, Germany) solution (0.3 mg/mL in assay medium (AM)) in a 12-well plate. Then, a biopsy of the epidermis was done using a puncher (Episkin, Lyon, France), and the precipitated formazan was extracted using 500 µL of acidified isopropanol (Chempur, Piekary Śląskie, Poland) (0.04 N HCl in isopropanol) for 48 h (4 °C). At the end of the extraction period, 200 µL of each sample were transferred to 96-well plates for absorbance measurements at 570 nm (A570) [70, 71, 72, 73]. […] Viability (percent of control) was determined by dividing A570 of experimental wells by A570 of control wells × 100%. The test substance was considered as an irritant when mean tissue viability was equal or less than 50% [16, 17].
# Il-1α measurement was conducted by a classic enzyme-linked immunosorbent assay (ELISA) technique (Cayman Chemical, Ann Arbor, MI, USA). Firstly, 100 µL of the samples were added into a 96-well ready to use microtiter plate (precoated with a monoclonal antibody specific for Il-1α (Il-1α capture antibody). Secondly, 100 µL of an acetylcholinesterase:Fab’ Conjugate (AChE:Fab’) was added to each well. The plate was covered with plastic film and incubated overnight at 4 °C. At the end of the incubation period the contents of each well were removed and rinsed five times with wash buffer. Next, 200 µL of Ellman’s reagent (containing the substrate for AChE) was added to each well, the plate was covered with plastic film and developed in the dark using an orbital shaker. The absorbance of the wells was measured at 410 nm. Il-1α concentrations were then calculated using the standard curve.
# [2] = Relative lipophilicity by reversed-phase thin-layer chromatography; assay type: physicochemical; settings: RP-TLC, RP-18 plates, methanol/phosphate buffer pH 7.4, extrapolated to 0% methanol
# Protocol: The experimental log P was determined by reversed-phase thin-layer chromatography (RP-TLC). TLC was carried out on plates precoated with silica gel RP-18 F254 (Merck, Darmstadt, Germany). The mobile phases used were the mixtures of methanol (commercially available material of reagent grade) and 100 mM potassium–phosphate buffer (pH = 7.4), with the methanol content ranging from 95 to 65% (v/v) in 5% increments. A total of 10 μL of test compound solutions in methanol (1 mg/mL) were spotted on the plates. The plates were developed in chromatographic chambers previously saturated with solvent for 1 h. After development (at room temperature in a normal chamber: 22 × 22 × 7 cm) and the drying of the plates, the spots were observed under a UV lamp (λ = 254 nm). The Rf values were mean values from two independent chromatographic runs. The experimental Rf was converted into the RM value according to the following equation [66]: RM = log (1/Rf − 1). The calculated values were extrapolated for a 0% methanol concentration (RM0) using the equation: RM = RM0 + bC, where C is the concentration (%, v/v) of methanol in the mobile phase and b is the regression term.
# [3] = design: method as in PMID 31238526; settings: 2% (w/w) macrogol formulations; cited from earlier work
# [4] = Incubation in buffer (pH 7.4) without HLMs (spontaneous hydrolysis control); assay type: physicochemical; settings: buffer pH = 7.4, no HLMs, 30 min, 37 °C
# Protocol: (§1) Supernatant analysis was performed using UHPLC/MS (Waters Corporation, Milford, MA, USA). Two control samples were prepared with each incubation set. The first, a mixture of a test compound and potassium phosphate buffer, and without the addition of HLMs nor the NADPH-regenerating system, was used to exclude the possibility of hydrolysis facilitated by the buffer solution. The second, a mixture of a test compound, potassium phosphate buffer and HLMs, but without the NADPH-regenerating system solution, was designed to evaluate the production of metabolites in the presence of enzymes but the absence of NADPH [14, 82]. The assays were repeated two times. The in vitro half time (t1/2) for JH3 was established from the slope of the linear regression of ln percent parent compound remaining against incubation time. Intrinsic clearance (Clint) was obtained from the equation: Clint = (volume of incubation [µL] (i.e., 250 µL)/protein in the incubation [mg] (i.e., 0.2 mg)) × 0.693/t1/2 [83, 84, 85].
# [5] = test system: Episkin^TM reconstructed human epidermis; assay: Episkin phototoxicity test (UVA 50 J/cm^2; MTT viability, Il-1α release); assay type: cell-based; settings: 0.5 and 1 mM; for phototoxic potential / viability of irradiated epidermis: UVA 50 J/cm^2; for tissue viability without UVA exposure: non-irradiated
# Protocol: The MM was provided by the manufacturer.
# Compounds JH3 and JH10 (final concentrations of 0.5 and 1 mM) solubilized in ethanol (final concentration of 1% in water) were applied topically on the tissue surface. Chlorpromazine (CPZ, chlorpromazine hydrochloride, C17H19ClN2S·HCl, CAS number: 69-09-0, molecular weight: […], purity: meets USP testing specifications, Sigma-Aldrich, Darmstadt, Germany) (final concentration of 0.5 mM, based on literature data) was used as a positive control, whereas solvent alone served as a negative control.
# Duplicate plates were prepared for UVA and dark (controls) exposure purposes. After the treatment period of 2 h, the excess test compound was removed from each well, and the tissues were exposed to UVA at a non-cytotoxic dose of 50 J/cm^2 ([…] at 250 W/m^2) with a solar light simulator equipped with a window glass filter and ID65 filter (Suntest CPS+, Atlas, Linsengericht, Germany). The emitted spectrum contained both UV and visible outputs with a UV cut-on of approx. 320 nm and corresponded to ID65 per ISO 10,977 [74]. The irradiance level between 320 and 400 nm was approximated by the following equation: W/m^2 (320–400 nm) = W/m^2 (300–800 nm) ÷ 11.5. In parallel, the non-irradiated treated tissues were placed in the dark under the same conditions. […] Next, cell viability was assessed using an MTT conversion test and the culture media aliquots were kept frozen (−20 °C) for Il-1α measurement (see 2.3.2. The Episkin^TM skin irritation test method section).
# [6] = In vitro microsomal biotransformation; assay type: in vitro ADME, human; settings: for t1/2 (in vitro half time): HLMs 0.8 mg/mL; for t1/2 (in vitro half time) / microsomal CLint at 20 µM / half-life at 20 µM: 20 µM, 37 °C; for Biotransformation (main metabolite M, ΔM −28): in the absence or presence of NADPH; for microsomal CLint at 20 µM / half-life at 20 µM: human, liver microsomes, pH 7.4, HLMs 0.8 mg/mL; for microsomal CLint at 20 µM: read-out: Clint (intrinsic clearance); for half-life at 20 µM: read-out: t1/2 (in vitro half time)
# Protocol: The microsome incubation procedure was adapted from the previous studies. Reaction mixtures comprising the test compound JH3 or JH10 (20 µM in methanol), human liver microsomes (HLMs; Sigma Aldrich, Darmstadt, Germany) (0.8 mg/mL), and 100 mM potassium phosphate buffer (pH 7.4) were preincubated before the addition of NADPH-regenerating system (NADP, glucose-6-phosphate and glucose-6-phosphate dehydrogenase in potassium phosphate buffer). The NADPH-regenerating system and buffer components were obtained from Sigma-Aldrich (Darmstadt, Germany). Incubation was conducted for different time points (i.e., 5, 15, and 30 min) with temperature set at 37 °C. The reaction was quenched with ice-cold methanol, followed by the addition of internal standard (IS)–PTX (20 µM). The mixture was then centrifuged.
# as §1
Structure (SMILES),Il-1α release [1],skin irritation classification [1],relative lipophilicity value (RM0) [2],SPFin vitro (sun protection factor) [3],UVA PF [3],UVA/UVB Ratio [3],λc [3],spontaneous hydrolysis in buffer [4],phototoxic potential [5],viability of irradiated epidermis [5],tissue viability without UVA exposure [5],t1/2 (in vitro half time) [6],"parent compound remaining ([6]; HLMs, 15 min time point)","Biotransformation (main metabolite M, ΔM −28) ([6]; HLMs)",microsomal CLint at 20 µM [6],half-life at 20 µM [6],"parent compound detected ([6]; HLMs, 5 min time point)"
"CCOC(=O)CN1C(=O)/C(=C/C=C/c2ccc(OC)cc2)N(CC(=O)OCC)C1=O [JH3, diethyl 2,2′-((Z)-4-((E)-3-(4-methoxyphenyl)allylidene)-2,5-dioxoimidazolidine-1,3-diyl)diacetate]",no significant increase,non-irritants,3.22,1.68 ± 0.04,6.83 ± 0.05,4.50 ± 0.32,391 nm,no signs of spontaneous hydrolysis,absence of phototoxic potential,no significant difference,no changes in tissue viability,5 - min,Approximately 5%,- Hydrolysis,> 172 µL/min/mg,~5 min,–
"CCOC(=O)CN1C(=O)/C(=C/c2ccc(OC)cc2)N(CC(=O)OCC)C1=O [JH10, diethyl 2,2′-((Z)-4-(4-methoxybenzylidene)-2,5-dioxoimidazolidine-1,3-diyl)diacetate]",no significant increase,non-irritants,2.46,3.07 ± 0.04,2.59 ± 0.23,0.84 ± 0.08,366 nm,no signs of spontaneous hydrolysis,absence of phototoxic potential,no significant difference,no changes in tissue viability,<<5 - min,–,- Hydrolysis,> 172 µL/min/mg,~5 min,less than 0.5%

# — article PMC8949075, “Evaluation of Two Novel Hydantoin Derivatives Using Reconstructed Human Skin Model Episkin^TM: Perspectives for Application as Potential Sunscreen Agents” (Molecules, 2022)
